Test results as given in patent publication US20250197387A1, “BCL-XL DEGRADERS AND USES THEREOF” (Kymera Therapeutics, Inc., priority 2021, published 2025).

Columns and labels:
BCL-XL [1] = biological target: T1, BCL-XL (Homo sapiens, UniProt Q07817); assay: BCL-XL degradation assay, western blot in MOLT-4 cells, 16 h; type: cell-based; settings: western blot, MOLT-4 cells, 16 h; for Dmax: read-out: Bcl-xL WB in MOLT-4 degradation 16 h: Average Dmax %; for DC50: read-out: Bcl-xL WB in MOLT-4 degradation 16 h: Mean external-Abs DC50
T1 construct: endogenous in cells; host or cells: MOLT-4
Method: Compounds treatment: compounds were reconstituted in DMSO to make a stock concentration of 10 mM. MOLT-4 cells were maintained in RPMI-1640+10% FBS+1% Penicillin-Streptomycin. Cells were seeded into 6-well plates in 2 mL at the seeding density of 2e6 cells/mL. Compounds were added to the cells to a final concentration ranging 0.02-10 μM. After 16 hr incubation at 37° C., in a CO2 incubator, cells were collected in an Eppendorf tube and centrifuged at 200×g for 5 minutes, the supernatant removed and pellets washed with ice-cold PBS, centrifuged and supernatant removed again. Then. 50 μl of pre-chilled RIPA lysis buffer (Boston BioProducts. BP-115D) with protease and phosphatase inhibitors (Roche Applied Science. #04906837001 and #04693116001) was added into cell pellet to lyze the cells for 20 minutes under 4° C. Cell lysates were spin at 13000 rpm for 10 minutes. Supernatants were collected and protein concentration was measured by BCA assay kit (Solarbio. PC0020-500) following the manufacturer's protocol. Samples' final protein concentration was adjusted to 3.75 μg/uL with the RIPA lysis buffer based on BCA assay results and 4× loading buffer (Invitrogen. NP0007) was added into the samples and samples were heated to 85° C., for 10 min and then let cool at RT. Samples were centrifuged at 13000 rpm for 10 min and then loaded into a 26-well NuPAGER. Novex 4-12% Bis-Tris Midi Gel (Invitrogen. WG1403BOX) and run in NuPAGER MOPS SDS Running Buffer (Invitrogen. NP0001) for 180 minutes at 70 V into a XCell4 SureLock™ Midi-Cell Runner (Invitrogen. WR0100). Gel were transferred using the Invitrogen iBlot gel transfer device (Invitrogen. IB21001) and the nitrocellulose transfer stacks (Invitrogen, IB23001) with Program PO for 9 minutes. The membrane was then blocked with 5% bovin serum albumin for 1 hr at RT, then incubated with primary antibodies diluted in blocking buffer (LI-COR. 927-60001) and shake at 4° C., overnight. The primary antibodies were anti-BCL-xL antibody (CST. 2762:1:1000), anti-beta-actin (CST. 3700; 1:5000) and anti-GAPDH (CST. 97166:1:5000). Membranes were then washed three times with PBST for 15 minutes at RT. Secondary antibodies IR-Dye 680 CW Goat anti Mouse IgG (LI-COR. 926-68070) and IR-Dye 800 CW Goat anti Rabbit IgG (LI-COR. 926-32211) were diluted at a ratio of 1:10000 into PBST and membranes incubated for 1 hour at RT. Membranes were then washed three times with PBST for 15 minutes at RT. The western blot images were obtained using Odyssey Imaging System and quantified using Image Studio Lite Ver 5.2 software.
(§1) The letter codes for BCL-XL DC50 include: A (<0.01 μM); B (0.01-0.1 μM); C (>[…]); D (>0.5-1.0 μM); and E (>1.0 μM). The letter codes for Dmax % include A (>75%); B (50 to 75%); C (<50%).

BCL-XL [2] = biological target: T1, BCL-XL; assay: Bcl-xL ELISA degradation in MOLT-4 cells, 6 h; type: cell-based; settings: for DC50: read-out: Bcl-xL ELISA in MOLT-4 degradation 6 h: Mean external-Abs DC50
Method: as §1

T1 sequence (Q07817 whole entry): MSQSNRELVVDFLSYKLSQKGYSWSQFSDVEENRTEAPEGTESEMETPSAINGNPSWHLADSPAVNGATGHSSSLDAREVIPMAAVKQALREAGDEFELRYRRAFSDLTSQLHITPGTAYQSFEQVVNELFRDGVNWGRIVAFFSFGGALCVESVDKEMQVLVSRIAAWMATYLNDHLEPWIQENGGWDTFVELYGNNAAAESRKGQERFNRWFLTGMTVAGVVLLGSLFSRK

Row | Structure (SMILES) | Dmax (BCL-XL [1]) [%] | DC50 (BCL-XL [1]) [nM] | Dmax (BCL-XL [2]) [%] | DC50 (BCL-XL [2]) [nM]
1 | Cc1ncsc1-c1ccc([C@H](C)NC(=O)[C@@H]2C[C@@H](O)CN2C(=O)[C@@H](NC(=O)CCCCCC(=O)N2CCN(CC[C@@H](CSc3ccccc3)Nc3ccc(S(=O)(=O)NC(=O)c4ccc(N5CCC(C)(C)CC5)cc4)cc3S(=O)(=O)C(F)(F)F)CC2)C(C)(C)C)cc1 [I-393] | < 50 | > 1000 |  | 
2 | Cc1ncsc1-c1ccc([C@H](C)NC(=O)[C@@H]2C[C@@H](O)CN2C(=O)[C@@H](NC(=O)CCCCCC(=O)N2CCN(CC#Cc3ccc(OCCCc4sc(N5CCc6cccc(C(=O)Nc7nc8ccccc8s7)c6C5)nc4C(=O)O)cc3)CC2)C(C)(C)C)cc1 [I-93] | 50 to 75 | > 1000 |  | 
3 | Cc1cc(N(CCN(C)C(=O)CCCCCOc2cc(-c3scnc3C)ccc2CNC(=O)[C@@H]2C[C@@H](O)CN2C(=O)[C@@H](NC(=O)C2(F)CC2)C(C)(C)C)c2ccc(-c3cnn(CC4CCCCC4)c3C)c(C(=O)O)n2)nnc1Nc1nc2ccccc2s1 [I-103] | < 50 | > 1000 |  | 
4 | Cc1cc(N(CCN(C)C(=O)CCCC(=O)N[C@H](C(=O)N2C[C@H](O)C[C@H]2C(=O)N[C@@H](C)c2ccc(-c3scnc3C)cc2)C(C)(C)C)c2ccc(-c3cnn(CC4CCCCC4)c3C)c(C(=O)O)n2)nnc1Nc1nc2ccccc2s1 [I-99] | 50 to 75 | > 1000 |  | 
5 | Cc1ncsc1-c1ccc([C@H](C)NC(=O)[C@@H]2C[C@@H](O)CN2C(=O)[C@@H](NC(=O)CCCC(=O)N2CCN(CC[C@H](CSc3ccccc3)Nc3ccc(S(=O)(=O)NC(=O)c4ccc(N5CCN(CC6=C(c7ccc(Cl)cc7)CCC(C)(C)C6)CC5)cc4)cc3S(=O)(=O)C(F)(F)F)CC2)C(C)(C)C)cc1 [I-86] | 50 to 75 | > 1000 |  | 
6 | C#Cc1ccc(CNC(=O)[C@@H]2C[C@@H](O)CN2C(=O)[C@@H](NC(=O)C2(F)CC2)C(C)(C)C)c(OCC(=O)N2CCN(CC[C@H](CSc3ccccc3)Nc3ccc(S(=O)(=O)NC(=O)c4ccc(N5CCN(CC6=C(c7ccc(Cl)cc7)CCC(C)(C)C6)CC5)cc4)cc3S(=O)(=O)C(F)(F)F)CC2)c1 [I-92] | > 75 | 100 to 500 |  | 
7 | Cc1ncsc1-c1ccc(CNC(=O)[C@@H]2C[C@@H](O)CN2C(=O)[C@@H](NC(=O)C2(F)CC2)C(C)(C)C)c(O[C@H]2CC[C@@H](C(=O)N3CCN(CC[C@H](CSc4ccccc4)Nc4ccc(S(=O)(=O)NC(=O)c5ccc(N6CCN(CC7=C(c8ccc(Cl)cc8)CCC(C)(C)C7)CC6)cc5)cc4S(=O)(=O)C(F)(F)F)CC3)CC2)c1 [I-90] | < 50 | > 1000 |  | 
8 | Cc1ncsc1-c1ccc(CNC(=O)[C@@H]2C[C@@H](O)CN2C(=O)[C@@H](NC(=O)C2(F)CC2)C(C)(C)C)c(OCCCCCC(=O)N(C)CC#Cc2ccc(OCCCc3sc(N4CCc5cccc(C(=O)Nc6nc7ccccc7s6)c5C4)nc3C(=O)O)c(F)c2)c1 [I-7] | 50 to 75 | 500 to 1000 |  | 
9 | Cc1ncsc1-c1ccc([C@H](C)NC(=O)[C@@H]2C[C@@H](O)CN2C(=O)[C@@H](NC(=O)[C@H]2CC[C@H](CC(=O)N3CCN(CC[C@H](CSc4ccccc4)Nc4ccc(S(=O)(=O)NC(=O)c5ccc(N6CCN(CC7=C(c8ccc(Cl)cc8)CCC(C)(C)C7)CC6)cc5)cc4S(=O)(=O)C(F)(F)F)CC3)CC2)C(C)(C)C)cc1 [I-391] | > 75 | 10 to 100 |  | 
10 | Cc1ncsc1-c1ccc(CNC(=O)[C@@H]2C[C@@H](O)CN2C(=O)[C@@H](NC(=O)C2(F)CC2)C(C)(C)C)c(OCCCCCCCCC(=O)N(C)CC#Cc2ccc(OCCCc3sc(N4CCc5cccc(C(=O)Nc6nc7ccccc7s6)c5C4)nc3C(=O)O)c(F)c2)c1 [I-386] | > 75 | 10 to 100 |  | 
11 | Cc1cc(N(CCN(C)C(=O)CCCCCCCCC(=O)N[C@H](C(=O)N2C[C@H](O)C[C@H]2C(=O)N[C@@H](C)c2ccc(-c3scnc3C)cc2)C(C)(C)C)c2ccc(-c3cnn(CC4CCCCC4)c3C)c(C(=O)O)n2)nnc1Nc1nc2ccccc2s1 [I-101] | < 50 | > 1000 |  | 
12 | Cc1ncsc1-c1ccc(CNC(=O)[C@@H]2C[C@@H](O)CN2C(=O)C(c2cc(OCCCC(=O)N3CCN(CC[C@H](CSc4ccccc4)Nc4ccc(S(=O)(=O)NC(=O)c5ccc(N6CCN(CC7=C(c8ccc(Cl)cc8)CCC(C)(C)C7)CC6)cc5)cc4S(=O)(=O)C(F)(F)F)CC3)no2)C(C)C)cc1 (stereo partly shown) [I-38] | 50 to 75 | 100 to 500 |  | 
13 | Cc1ncsc1-c1ccc([C@H](C)NC(=O)[C@@H]2C[C@@H](O)CN2C(=O)[C@@H](NC(=O)N2CCC3(CCN(CC#Cc4ccc(OCCCc5sc(N6CCc7cccc(C(=O)Nc8nc9ccccc9s8)c7C6)nc5C(=O)O)c(F)c4)CC3)CC2)C(C)(C)C)cc1 [I-71] |  |  | < 50 | 
14 | Cc1ncsc1-c1ccc([C@H](C)NC(=O)[C@@H]2C[C@@H](O)CN2C(=O)[C@@H](c2cc(OC3CN(CCCS(=O)(=O)NC(=O)c4nc(N5CCc6cccc(C(=O)Nc7nc8ccccc8s7)c6C5)ccc4-c4cnn(CC5CCCCC5)c4C)C3)no2)C(C)C)cc1 [I-271] |  |  | > 75 | 10 to 100
15 | Cc1cc(S(=O)(=O)NC(=O)c2nc(N3CCc4cccc(C(=O)Nc5nc6ccccc6s5)c4C3)ccc2-c2cnn(CC3CCCCC3)c2C)ccc1N1CCC(C(=O)N[C@H](C(=O)N2C[C@H](O)C[C@H]2C(=O)N[C@@H](C)c2ccc(-c3scnc3C)cc2)C(C)(C)C)CC1 [I-273] |  |  | > 75 | < 10
16 | Cc1cc([C@@H](C(=O)N2C[C@H](O)C[C@H]2C(=O)NCc2ccc(-c3scnc3C)cc2OCCCCCCN(C)C(=O)c2nc(N3CCc4cccc(C(=O)Nc5nc6ccccc6s5)c4C3)ccc2-c2cnn(CC3CCCCC3)c2C)C(C)C)on1 [I-264] |  |  | 50 to 75 | 10 to 100
17 | Cc1ncsc1-c1ccc(CNC(=O)[C@@H]2C[C@@H](O)CN2C(=O)[C@@H](NC(=O)C2(F)CC2)C(C)(C)C)c(OC2CCN(CC[C@H](CSc3ccccc3)Nc3ccc(S(=O)(=O)NC(=O)c4ccc(N5CCN(CC6=C(c7ccc(Cl)cc7)CCC(C)(C)C6)CC5)cc4)cc3S(=O)(=O)C(F)(F)F)CC2)c1 [I-281] |  |  | < 50 | 
18 | Cc1ncsc1-c1ccc([C@H](C)NC(=O)[C@@H]2C[C@@H](O)CN2C(=O)C(c2cc(OC3CCN(c4ccc(S(=O)(=O)NC(=O)c5nc(N6CCc7cccc(C(=O)Nc8nc9ccccc9s8)c7C6)ccc5-c5cnn(CC6CCCCC6)c5C)cc4)CC3)no2)C(C)C)cc1 (stereo partly shown) [I-231] |  |  | < 50 | 
19 | Cc1ncsc1-c1ccc([C@H](C)NC(=O)[C@@H]2C[C@@H](O)CN2C(=O)[C@H](c2cc(N3CC(N4CCC(NC(=O)c5nc(N6CCc7cccc(C(=O)Nc8nc9ccccc9s8)c7C6)ccc5-c5cnn(CC6CCCCC6)c5C)CC4)C3)no2)C(C)C)cc1 [I-235] |  |  | < 50 | 
20 | Cc1ncsc1-c1ccc(CNC(=O)[C@@H]2C[C@@H](O)CN2C(=O)[C@@H](NC(=O)C2(F)CC2)C(C)(C)C)c(N2CCC(N3CCC(NC(=O)c4nc(N5CCc6cccc(C(=O)Nc7nc8ccccc8s7)c6C5)ccc4-c4cnn(CC5CCCCC5)c4C)CC3)CC2)c1 [I-270] |  |  | < 50 | > 1000
21 | Cc1ncsc1-c1ccc(CNC(=O)[C@@H]2C[C@@H](O)CN2C(=O)[C@@H](NC(=O)C2(F)CC2)C(C)(C)C)c(OCCCC(=O)N2CCN(CC#Cc3ccc(OCCCc4sc(N5CCc6cccc(C(=O)Nc7nc8ccccc8s7)c6C5)nc4C(=O)O)c(F)c3)CC2)c1 [I-223] |  |  | 50 to 75 | 10 to 100
22 | Cc1ncsc1-c1ccc([C@H](C)NC(=O)[C@@H]2C[C@@H](O)CN2C(=O)[C@@H](NC(=O)N2CCN(c3ccc(S(=O)(=O)NC(=O)c4nc(N5CCc6cccc(C(=O)Nc7nc8ccccc8s7)c6C5)ccc4-c4cnn(CC5CCCCC5)c4C)cc3)CC2)C(C)(C)C)cc1 [I-261] |  |  | > 75 | 10 to 100
